Data taken from patent US11883387B2, “PqsR inverse agonists” (HELMHOLTZ-ZENTRUM FÜR INFEKTIONSFORSCHUNG GMBH, priority 2018, dated 2024).

What follows are compounds tested on P. aeruginosa pyocyanin production (assay: Pyocyanin assay). Conditions: Pseudomonas aeruginosa, PA14, 16 h, read-out: IC50-value towards pyocyanin production, PA14 in PPGAS medium, 16 h.
Type: cell-based, P. aeruginosa PA14
Description: Inhibition of P. aeruginosa pyocyanin production by compounds was determined photometrically as described before.[20] In short, an overnight culture of PA14 in PPGAS medium was washed, diluted in medium to a start OD600 of 0.02, and incubated for 16 h (37° C., 200 rpm, relative humidity 75%) in the presence of test compounds. Then, cultures were extracted with chloroform and re-extracted with 0.2 M HCl. Protonated red colored pyocyanin was determined by measuring OD520 and normalizing to OD600.
Compound `CC(C)Oc1ccc(-n2cc(CNc3cc(Cl)nc(C(F)(F)F)c3)nn2)cc1` [Compound 140, 2-chloro-N-((1-(4-isopropoxyphenyl)-1H-1,2,3-triazol-4-yl)methyl)-6-(trifluoromethyl)pyridin-4-amine] has an IC50 of no more than 250 nM.
`Fc1cccc2c1cnn2-c1ccc(-n2cc(CNc3cc(Cl)nc(C(F)(F)F)c3)nn2)cc1` [Compound 146, 2-chloro-N-((1-(4-(4-fluoro-1H-indazol-1-yl)phenyl)-1H-1,2,3-triazol-4-yl)methyl)-6-(trifluoromethyl)pyridin-4-amine] gave an IC50 of 251 to 1000 nM.
Work on `FC(F)(F)c1cc(NCc2cn(-c3ccc(-n4ncc5ccccc54)cc3)nn2)cc(Cl)n1` [Compound 150, N-((1-(4-(1H-indazol-1-yl)phenyl)-1H-1,2,3-triazol-4-yl)methyl)-2-chloro-6-(trifluoromethyl)pyridin-4-amine] yielded an IC50 of 251 to 1000 nM.
`FC(F)(F)c1cc(NCc2cn(-c3ccc(-n4ncc5ccncc54)cc3)nn2)cc(Cl)n1` [Compound 151, N-((1-(4-(1H-pyrazolo[3,4-c]pyridin-1-yl)phenyl)-1H-1,2,3-triazol-4-yl)methyl)-2-chloro-6-(trifluoromethyl)pyridin-4-amine] gave an IC50 of 251 to 1000 nM.
With `CC(C)Oc1ccc(-c2ncc(CNc3cc(C#N)nc(C(F)(F)F)c3)s2)cc1` [Compound 163, 4-(((2-(4-Isopropoxyphenyl)thiazol-5-yl)methyl)amino)-6-(trifluoromethyl)picolinonitrile] the IC50 was no more than 250 nM.
With `Fc1ccccc1Oc1ccc(-c2ncc(CNc3cc(Cl)nc(C(F)(F)F)c3)cn2)cc1` [Compound 167, 2-chloro-N-((2-(4-(2-fluorophenoxy)phenyl)pyrimidin-5-yl)methyl)-6-(trifluoromethyl)pyridin-4-amine] the IC50 was no more than 250 nM.

What follows are compounds tested against PqsR (Pseudomonas aeruginosa, UniProt Q9I4X0) (assay: E. coli based β-galactosidase reporter gene assay (PqsR inverse agonistic activity)). Conditions: not given.
Sequence of PqsR (Q9I4X0 whole entry): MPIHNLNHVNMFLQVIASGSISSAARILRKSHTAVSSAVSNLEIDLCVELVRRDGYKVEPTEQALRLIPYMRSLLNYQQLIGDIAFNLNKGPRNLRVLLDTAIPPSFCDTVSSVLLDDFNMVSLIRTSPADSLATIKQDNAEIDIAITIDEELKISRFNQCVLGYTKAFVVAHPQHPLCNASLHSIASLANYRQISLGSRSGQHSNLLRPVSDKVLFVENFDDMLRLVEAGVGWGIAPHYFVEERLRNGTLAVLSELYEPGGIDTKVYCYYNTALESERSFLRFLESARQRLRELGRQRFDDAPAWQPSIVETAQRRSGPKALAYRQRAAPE
Type: cell-based
Set-up: expressed in transfected cells; host or cells: Escherichia coli DH5α
Description: Inhibition of pqsR-dependent gene expression of test compounds was determined in an E. coli based β-galactosidase reporter gene assay.[19] Escherichia coli DH5α was transfected with pEAL08-2 plasmid encoding pqsR under control of promoter tac and β-galactosidase reporter gene lacZ under control of promoter pqsA. Antagonistic effects of compounds were evaluated in the presence of/in competition to 50 nM PQS. A positive control was used to ensure the reliability of individual assays. First, PQS was diluted in methanol and added to the wells of a glass coated 96-deep-well plate, and the solvent was evaporated. Then, compounds were added in 5 μL DMSO to final concentrations of 0.001-10 μM. Overnight cultures of E. coli DH5a×pEAL08-2 were diluted 1:100 in LB medium with ampicillin (50 μg/ml) and incubated at 37° C. with shaking until it reached an OD600 of 0.2. Finally, 995 μL of culture was added to each well and the p-galactosidase activity was determined by ortho-nitrophenyl-p-galactoside conversion in permeabilized cells after a 2.5 h incubation period (37° C., 180 rpm). OD600, OD420, and OD550 were measured using POLARstar Omega (BMG Labtech, Ortenberg, Germany), and the activity was expressed as ratio of the slope of β-galactosidase activity between basal control (no PQS) and solvent control. IC50 values of antagonists were determined by variation of the concentration of the test compounds.
With `FC(F)(F)c1cc(NCc2cn(-c3ccc(Oc4ccccn4)c(Cl)c3)nn2)ccn1` [Compound 034, N-((1-(3-Chloro-4-(pyridin-2-yloxy)phenyl)-1H-1,2,3-triazol-4-yl)methyl)-2-(trifluoromethyl)pyridin-4-amine] the IC50 was no more than 50 nM.
`FC(F)(F)c1cc(SCc2cn(-c3ccc(Cl)cc3)nn2)ccn1` [Compound 055, 4-(((1-(4-chlorophenyl)-1H-1,2,3-triazol-4-yl)methyl)thio)-2-(trifluoromethyl)pyridine] gave an IC50 of 251 to 1000 nM.
`FC(F)(F)c1cc(SCc2cn(-c3ccc(Br)cc3)nn2)ccn1` [Compound 058, 4-(((1-(4-Bromophenyl)-1H-1,2,3-triazol-4-yl)methyl)thio)-2-(trifluoromethyl)pyridine] gave an IC50 of 51 to 250 nM.
Work on `FC(F)(F)c1cc(SCc2cn(-c3ccc(Cl)c(Cl)c3)nn2)ccn1` [Compound 059, 4-(((1-(3,4-Dichlorophenyl)-1H-1,2,3-triazol-4-yl)methyl)thio)-2-(trifluoromethyl)pyridine] yielded an IC50 of 51 to 250 nM.
With `FC(F)(F)c1nccc(SCc2cn(-c3ccc(Cl)cc3)nn2)n1` [Compound 060, 4-(((1-(4-chlorophenyl)-1H-1,2,3-triazol-4-yl)methyl)thio)-2-(trifluoromethyl)pyrimidine] the IC50 was 251 to 1000 nM.
`COc1ccc(-n2cc(CSc3ccnc(C(F)(F)F)c3)nn2)cc1` [Compound 062, 4-(((1-(4-methoxyphenyl)-1H-1,2,3-triazol-4-yl)methyl)thio)-2-(trifluoromethyl)pyridine] showed an IC50 of 251 to 1000 nM.
Compound `Fc1cc(-n2cc(CSc3ccnc(C(F)(F)F)c3)nn2)ccc1OC(F)(F)F` [Compound 064, 4-(((1-(3-fluoro-4-(trifluoromethoxy)phenyl)-1H-1,2,3-triazol-4-yl)methyl)thio)-2-(trifluoromethyl)pyridine] has an IC50 of 51 to 250 nM.
With `FC(F)(F)c1cc(SCc2cnc(-c3ccc(Cl)cc3)s2)ccn1` [Compound 067, 2-(4-Chlorophenyl)-5-(((2-(trifluoromethyl)pyridin-4-yl)thio)methyl) thiazole] the IC50 was 251 to 1000 nM.
`COc1c(C)cc(-c2ncc(CNc3ccnc(C(F)(F)F)c3)s2)cc1C` [Compound 075, N-((2-(4-Methoxy-3,5-dimethylphenyl)thiazol-5-yl)methyl)-2-(trifluoromethyl)pyridin-4-amine] was tested, and the IC50 was 251 to 1000 nM.
For `N#Cc1ccc(-c2nc(CNc3ccnc(C(F)(F)F)c3)cs2)cc1` [Compound 085, 4-(4-(((2-(Trifluoromethyl)pyridin-4-yl)amino)methyl)thiazol-2-yl)benzonitrile], the IC50 was 251 to 1000 nM.
With `COc1ccc(-c2nc(CNc3ccnc(C(F)(F)F)c3)cs2)cc1` [Compound 086, N-((2-(4-Methoxyphenyl)thiazol-4-yl)methyl)-2-(trifluoromethyl)pyridin-4-amine] the IC50 was 251 to 1000 nM.
Work on `FC(F)(F)c1cc(NCc2csc(-c3cccc(Oc4ccccc4)c3)n2)ccn1` [Compound 089, N-((2-(3-Phenoxyphenyl)thiazol-4-yl)methyl)-2-(trifluoromethyl)pyridin-4-amine] yielded an IC50 of 51 to 250 nM.
Work on `O=C(c1cccc(-c2nc(CNc3ccnc(C(F)(F)F)c3)cs2)c1)C1CC1` [Compound 090, Cyclopropyl(3-(4-(((2-(trifluoromethyl)pyridin-4-yl)amino)methyl)thiazol-2-yl)phenyl)methanone] yielded an IC50 of 251 to 1000 nM.
`FC(F)(F)c1cc(NCc2ncc(-c3ccc(Cl)nc3)cn2)ccn1` [Compound 099, N-((5-(6-Chloropyridin-3-yl)pyrimidin-2-yl)methyl)-2-(trifluoromethyl)pyridin-4-amine] gave an IC50 of 251 to 1000 nM.
`FC(F)(F)c1cc(SCc2ccc(-c3ccc(Oc4ccccc4)cc3)cn2)ccn1` [Compound 109, 4-(((5-(4-phenoxyphenyl)pyridin-2-yl)methyl)thio)-2-(trifluoromethyl)pyridine] showed an IC50 of 251 to 1000 nM.
`FC(F)(F)c1cc(SCc2ccc(-c3ccc(Cl)nc3)cc2)ccn1` [Compound 110, 4-((4-(6-Chloropyridin-3-yl)benzyl)thio)-2-(trifluoromethyl)pyridine] was tested, and the IC50 was 251 to 1000 nM.
In the case of `FC(F)(F)c1cc(SCc2ccc(-c3cnc(Cl)nc3)cn2)ccn1` [Compound 113, 2-Chloro-5-(6-(((2-(trifluoromethyl)pyridin-4-yl)thio)methyl)pyridin-3-yl)pyrimidine], the IC50 is reported as 251 to 1000 nM.
For `COc1ncc(-c2ccc(CSc3ccnc(C(F)(F)F)c3)nc2)cc1Cl` [Compound 115, 5-Chloro-6-methoxy-6′-(((2-(trifluoromethyl)pyridin-4-yl)thio)methyl)-3,3′-bipyridine], the IC50 was 251 to 1000 nM.
Work on `FC(F)(F)c1cc(SCc2nc3cc(Cl)ccc3[nH]2)ccn1` [Compound 123, 5-Chloro-2-(((2-(trifluoromethyl)pyridin-4-yl)thio)methyl)-1H-benzo[d]imidazole] yielded an IC50 of 251 to 1000 nM.
Compound `FC(F)(F)c1nc(Cl)cc(SCc2nc3cc(Oc4ccccc4)ccc3[nH]2)n1` [Compound 124, 2-(((6-Chloro-2-(trifluoromethyl)pyrimidin-4-yl)thio)methyl)-5-phenoxy-1H-benzo[d]imidazole] has an IC50 of 251 to 1000 nM.
Work on `COc1cc(SCc2nc3cc(Oc4ccccc4)ccc3[nH]2)nc(C(F)(F)F)n1` [Compound 126, 2-(((6-Methoxy-2-(trifluoromethyl)pyrimidin-4-yl)thio)methyl)-5-phenoxy-1H-benzo[d]imidazole] yielded an IC50 of 251 to 1000 nM.
For `Fc1cccc(Oc2ccc3[nH]c(CSc4ccnc(C(F)(F)F)c4)nc3c2)c1` [Compound 130, 5-(3-Fluorophenoxy)-2-(((2-(trifluoromethyl)pyridin-4-yl)thio)methyl)-1H-benzo[d]imidazole], the IC50 was no more than 50 nM.
`FC(F)(F)c1cc(OCc2nc3ccc(Oc4ccccc4)cc3o2)ccn1` [Compound 133, 6-Phenoxy-2-(((2-(trifluoromethyl)pyridin-4-yl)oxy)methyl)benzo[d]oxazole] was tested, and the IC50 was 251 to 1000 nM.
`FC(F)(F)c1cc(SCc2ccn(-c3ccc(Cl)cc3)n2)ccn1` [Compound 135, 4-(((1-(4-chlorophenyl)-1H-pyrazol-3-yl)methyl)thio)-2-(trifluoromethyl)-pyridine] gave an IC50 of 251 to 1000 nM.
For `FC(F)(F)c1cc(SCc2nnc(-c3ccc(Cl)cc3)o2)ccn1` [Compound 136, 2-(4-Chlorophenyl)-5-(((2-(trifluoromethyl)pyridin-4-yl)thio)methyl)-1,3,4-oxadiazole], the IC50 was 251 to 1000 nM.
For `FC(F)(F)c1cc(SCc2nc(-c3ccc(Cl)cc3)no2)ccn1` [Compound 137, 3-(4-Chlorophenyl)-5-(((2-(trifluoromethyl)pyridin-4-yl)thio)methyl)-1,2,4-oxadiazole], the IC50 was 251 to 1000 nM.
`FC(F)(F)c1cc(SCc2nnn(-c3ccc(Cl)cc3)n2)ccn1` [Compound 138, 4-(((2-(4-Chlorophenyl)-2H-tetrazol-5-yl)methyl)thio)-2-(trifluoromethyl)pyridine] showed an IC50 of 251 to 1000 nM.
`FC(F)(F)c1cc(NCc2cn(-c3ccc(-n4ncc5ncccc54)cc3)nn2)ccn1` [Compound 149, N-((1-(4-(1H-pyrazolo[4,3-b]pyridin-1-yl)phenyl)-1H-1,2,3-triazol-4-yl)methyl)-2-(trifluoromethyl)pyridin-4-amine] gave an IC50 of no more than 50 nM.
